SMILES strings stand for the structures. ≈ marks a conversion by molar mass, not a printed value. Some results are limits rather than exact numbers.

The first assay has as its system Pasteurella multocida PM 10775 (080130003051, BRD field isolate). Nature of the assay: MIC, broth-microdilution (CLSI VET01-A4), strain PM 10775. Format: cell-based. Conditions: Pasteurella multocida strain PM 10775, broth-microdilution; unit assumed. The method in brief: (§1)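 Serial twofold dilutions; unaided-eye turbidity scoring; lowest clear well = MIC.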
A general note: Broth dilution looks for growth in wells or tubes with falling amounts of substance.
In the case of `CC[C@H](C)[C@H](NC(=O)c1ccc(C#Cc2ccc(CNCc3cccnc3)cc2)cc1)C(=O)NO` [Compound 179], the MIC PM 10775 is at most 0.1 µg/mL.
Regarding `CSC(C)(C)[C@H](NC(=O)c1ccc(C#Cc2ccc(CNCc3cccnc3)nc2)cc1)C(=O)NO` [Compound 367], the MIC PM 10775 is at most 0.1 µg/mL.
Compound `CC(C)([C@H](NC(=O)c1ccc(C#Cc2ccc(CNC3CC3)nc2)cc1)C(=O)NO)S(C)(=O)=O` [Compound 348] gave an MIC PM 10775 of at most 0.1 µg/mL.
In turn, `CC(C)([C@H](NC(=O)c1ccc(C#Cc2ccc(CN3CCCC3)cc2)cc1)C(=O)NO)S(C)(=O)=O` [Compound 262] registered an MIC PM 10775 of at most 0.1 µg/mL.

In a further assay the test system is Mannheimia haemolytica MH 13093 (XB0472-6014.1, BRD field isolate). Nature of the assay: MIC, broth-microdilution (CLSI VET01-A4), strain MH 13093. Format: cell-based. Conditions: Mannheimia haemolytica strain MH 13093, broth-microdilution; unit assumed. The method, boiled down:
as §1
Consider `CC[C@H](C)[C@H](NC(=O)c1ccc(C#Cc2ccc(CNCc3cccnc3)cc2)cc1)C(=O)NO` [Compound 179], for which the MIC MH 13093 was 0.8 µg/mL (≈ 1.7 µM).
Compound `CSC(C)(C)[C@H](NC(=O)c1ccc(C#Cc2ccc(CNCc3cccnc3)nc2)cc1)C(=O)NO` [Compound 367] gave an MIC MH 13093 of 3.1 µg/mL (≈ 6.16 µM).
Compound `CC(C)([C@H](NC(=O)c1ccc(C#Cc2ccc(CNC3CC3)nc2)cc1)C(=O)NO)S(C)(=O)=O` [Compound 348] had an MIC MH 13093 of 0.8 µg/mL (≈ 1.65 µM).
The compound `CC(C)([C@H](NC(=O)c1ccc(C#Cc2ccc(CN3CCCC3)cc2)cc1)C(=O)NO)S(C)(=O)=O` [Compound 262] came in with an MIC MH 13093 of 6.3 µg/mL (≈ 12.7 µM).

In a further assay the test system is Mannheimia haemolytica MH 6357 (M7/2, reference strain, cattle infection strain). Nature of the assay: MIC, broth-microdilution (CLSI VET01-A4), strain MH 6357. It is filed as cell-based. Conditions: Mannheimia haemolytica strain MH 6357, broth-microdilution; unit assumed. The method in brief:
as §1
`CC[C@H](C)[C@H](NC(=O)c1ccc(C#Cc2ccc(CNCc3cccnc3)cc2)cc1)C(=O)NO` [Compound 179] returned an MIC MH 6357 of 0.4 µg/mL (≈ 0.85 µM).
`CSC(C)(C)[C@H](NC(=O)c1ccc(C#Cc2ccc(CNCc3cccnc3)nc2)cc1)C(=O)NO` [Compound 367] registered an MIC MH 6357 of 0.8 µg/mL (≈ 1.59 µM).
Same read-out and setting: with `CC(C)([C@H](NC(=O)c1ccc(C#Cc2ccc(CNC3CC3)nc2)cc1)C(=O)NO)S(C)(=O)=O` [Compound 348] the figure was 0.8 µg/mL (≈ 1.65 µM).
`CC(C)([C@H](NC(=O)c1ccc(C#Cc2ccc(CN3CCCC3)cc2)cc1)C(=O)NO)S(C)(=O)=O` [Compound 262] yielded an MIC MH 6357 of 12.5 µg/mL (≈ 25.1 µM).

For a further assay, the system named is Mannheimia haemolytica MH 10720 (154, BRD field isolate). Nature of the assay: MIC, broth-microdilution (CLSI VET01-A4), strain MH 10720. Conditions: Mannheimia haemolytica strain MH 10720, broth-microdilution; unit assumed. It is filed as cell-based. The method in brief: as §1
As to `CC[C@H](C)[C@H](NC(=O)c1ccc(C#Cc2ccc(CNCc3cccnc3)cc2)cc1)C(=O)NO` [Compound 179], the MIC MH 10720 was at most 0.1 µg/mL.
For the compound `CSC(C)(C)[C@H](NC(=O)c1ccc(C#Cc2ccc(CNCc3cccnc3)nc2)cc1)C(=O)NO` [Compound 367], the MIC MH 10720 is 0.4 µg/mL (≈ 0.794 µM).
With `CC(C)([C@H](NC(=O)c1ccc(C#Cc2ccc(CNC3CC3)nc2)cc1)C(=O)NO)S(C)(=O)=O` [Compound 348], the MIC MH 10720 was at most 0.1 µg/mL.
As to `CC(C)([C@H](NC(=O)c1ccc(C#Cc2ccc(CN3CCCC3)cc2)cc1)C(=O)NO)S(C)(=O)=O` [Compound 262], the MIC MH 10720 was determined as 1.6 µg/mL (≈ 3.22 µM).

The subject of the next assay is Pasteurella multocida PM 6267 (P 2225 (L386), reference strain, mouse infection strain). Nature of the assay: MIC, broth-microdilution (CLSI VET01-A4), strain PM 6267. Format: cell-based. Conditions: Pasteurella multocida strain PM 6267, broth-microdilution; unit assumed. The method in brief: as §1
With `CC[C@H](C)[C@H](NC(=O)c1ccc(C#Cc2ccc(CNCc3cccnc3)cc2)cc1)C(=O)NO` [Compound 179], the MIC PM 6267 is 0.2 µg/mL (≈ 0.425 µM).
As to `CSC(C)(C)[C@H](NC(=O)c1ccc(C#Cc2ccc(CNCc3cccnc3)nc2)cc1)C(=O)NO` [Compound 367], the MIC PM 6267 turned out to be 0.4 µg/mL (≈ 0.794 µM).
For the compound `CC(C)([C@H](NC(=O)c1ccc(C#Cc2ccc(CNC3CC3)nc2)cc1)C(=O)NO)S(C)(=O)=O` [Compound 348], the MIC PM 6267 came to 0.8 µg/mL (≈ 1.65 µM).
`CC(C)([C@H](NC(=O)c1ccc(C#Cc2ccc(CN3CCCC3)cc2)cc1)C(=O)NO)S(C)(=O)=O` [Compound 262] had an MIC PM 6267 of at most 0.1 µg/mL.

The test system of a further assay is Mannheimia haemolytica MH 6374 (ATCC 33396, reference strain). Nature of the assay: MIC, broth-microdilution (CLSI VET01-A4), strain MH 6374. Conditions: Mannheimia haemolytica strain MH 6374, broth-microdilution; unit assumed. It is filed as cell-based. The method, boiled down: as §1
Compound `CC[C@H](C)[C@H](NC(=O)c1ccc(C#Cc2ccc(CNCc3cccnc3)cc2)cc1)C(=O)NO` [Compound 179] had an MIC MH 6374 of 0.8 µg/mL (≈ 1.7 µM).
The compound `CSC(C)(C)[C@H](NC(=O)c1ccc(C#Cc2ccc(CNCc3cccnc3)nc2)cc1)C(=O)NO` [Compound 367] came in with an MIC MH 6374 of 0.8 µg/mL (≈ 1.59 µM).
The same measure, in the same setting: to `CC(C)([C@H](NC(=O)c1ccc(C#Cc2ccc(CNC3CC3)nc2)cc1)C(=O)NO)S(C)(=O)=O` [Compound 348] belongs 0.8 µg/mL (≈ 1.65 µM); to `CC(C)([C@H](NC(=O)c1ccc(C#Cc2ccc(CN3CCCC3)cc2)cc1)C(=O)NO)S(C)(=O)=O` [Compound 262], 6.3 µg/mL (≈ 12.7 µM).

A further assay relates to Pasteurella multocida PM 12080 (IV102277-0093, BRD field isolate). Nature of the assay: MIC, broth-microdilution (CLSI VET01-A4), strain PM 12080. It is filed as cell-based. Conditions: Pasteurella multocida strain PM 12080, broth-microdilution; unit assumed. The method in brief: as §1
With `CC[C@H](C)[C@H](NC(=O)c1ccc(C#Cc2ccc(CNCc3cccnc3)cc2)cc1)C(=O)NO` [Compound 179], the MIC PM 12080 is 0.4 µg/mL (≈ 0.85 µM).
The compound `CSC(C)(C)[C@H](NC(=O)c1ccc(C#Cc2ccc(CNCc3cccnc3)nc2)cc1)C(=O)NO` [Compound 367] displayed an MIC PM 12080 of 0.2 µg/mL (≈ 0.397 µM).
In the case of `CC(C)([C@H](NC(=O)c1ccc(C#Cc2ccc(CNC3CC3)nc2)cc1)C(=O)NO)S(C)(=O)=O` [Compound 348], the MIC PM 12080 is at most 0.1 µg/mL.
The compound `CC(C)([C@H](NC(=O)c1ccc(C#Cc2ccc(CN3CCCC3)cc2)cc1)C(=O)NO)S(C)(=O)=O` [Compound 262] came in with an MIC PM 12080 of 0.4 µg/mL (≈ 0.804 µM).

The next assay relates to Pasteurella multocida PM 6391 (ATCC 43137, reference strain). Nature of the assay: MIC, broth-microdilution (CLSI VET01-A4), strain PM 6391. It is filed as cell-based. Conditions: Pasteurella multocida strain PM 6391, broth-microdilution; unit assumed. The method, boiled down:
as §1
In turn, `CC[C@H](C)[C@H](NC(=O)c1ccc(C#Cc2ccc(CNCc3cccnc3)cc2)cc1)C(=O)NO` [Compound 179] yielded an MIC PM 6391 of 1.6 µg/mL (≈ 3.4 µM).
Consider `CSC(C)(C)[C@H](NC(=O)c1ccc(C#Cc2ccc(CNCc3cccnc3)nc2)cc1)C(=O)NO` [Compound 367], for which the MIC PM 6391 was found to be 0.4 µg/mL (≈ 0.794 µM).
On the same count and under the same terms, with `CC(C)([C@H](NC(=O)c1ccc(C#Cc2ccc(CNC3CC3)nc2)cc1)C(=O)NO)S(C)(=O)=O` [Compound 348] the figure was at most 0.1 µg/mL; with `CC(C)([C@H](NC(=O)c1ccc(C#Cc2ccc(CN3CCCC3)cc2)cc1)C(=O)NO)S(C)(=O)=O` [Compound 262], 0.4 µg/mL (≈ 0.804 µM).

The test system of another assay is Mannheimia haemolytica MH 12587 (1071, BRD field isolate, macrolide-resistance: erm+, E+). Nature of the assay: MIC, broth-microdilution (CLSI VET01-A4), strain MH 12587. It is filed as cell-based. Conditions: Mannheimia haemolytica strain MH 12587, broth-microdilution; unit assumed. The method, boiled down:
as §1
Consider `CC[C@H](C)[C@H](NC(=O)c1ccc(C#Cc2ccc(CNCc3cccnc3)cc2)cc1)C(=O)NO` [Compound 179], for which the MIC MH 12587 was found to be 1.6 µg/mL (≈ 3.4 µM).
Same read-out and setting: to `CSC(C)(C)[C@H](NC(=O)c1ccc(C#Cc2ccc(CNCc3cccnc3)nc2)cc1)C(=O)NO` [Compound 367] belongs 3.1 µg/mL (≈ 6.16 µM); to `CC(C)([C@H](NC(=O)c1ccc(C#Cc2ccc(CNC3CC3)nc2)cc1)C(=O)NO)S(C)(=O)=O` [Compound 348], 3.1 µg/mL (≈ 6.4 µM); to `CC(C)([C@H](NC(=O)c1ccc(C#Cc2ccc(CN3CCCC3)cc2)cc1)C(=O)NO)S(C)(=O)=O` [Compound 262], 12.5 µg/mL (≈ 25.1 µM).

A further assay relates to Mannheimia haemolytica MH 13065 (XB0446-6003.9, BRD field isolate). Nature of the assay: MIC, broth-microdilution (CLSI VET01-A4), strain MH 13065. It is filed as cell-based. Conditions: Mannheimia haemolytica strain MH 13065, broth-microdilution; unit assumed. The method in brief:
as §1
`CC[C@H](C)[C@H](NC(=O)c1ccc(C#Cc2ccc(CNCc3cccnc3)cc2)cc1)C(=O)NO` [Compound 179] showed an MIC MH 13065 of 0.8 µg/mL (≈ 1.7 µM).
As for `CSC(C)(C)[C@H](NC(=O)c1ccc(C#Cc2ccc(CNCc3cccnc3)nc2)cc1)C(=O)NO` [Compound 367], the MIC MH 13065 came to 1.6 µg/mL (≈ 3.18 µM).
`CC(C)([C@H](NC(=O)c1ccc(C#Cc2ccc(CNC3CC3)nc2)cc1)C(=O)NO)S(C)(=O)=O` [Compound 348] registered an MIC MH 13065 of 0.8 µg/mL (≈ 1.65 µM).
`CC(C)([C@H](NC(=O)c1ccc(C#Cc2ccc(CN3CCCC3)cc2)cc1)C(=O)NO)S(C)(=O)=O` [Compound 262] yielded an MIC MH 13065 of 6.3 µg/mL (≈ 12.7 µM).
